From patent publication US8293374B2, “Test system for evaluating the compatibility of biologically active substances with copolymers” (Abbott GmbH & Co. KG, priority 2002, dated 2012) come the findings set out here.

A short description of series [1]: Maximum solubility in test solvent after ultrasound treatment, HPLC of supernatant (method c). Type of series: physicochemical. As to the method:
However, the active ingredient loading in solid solutions can be increased greatly by energy input. The maximum active ingredient loading achievable in a given matrix of a copolymer can be predicted with the test system of the invention by determining the solubility of the biologically active substance in accordance with one of the aforementioned methods a) or b), the equilibration being carried out by heating to a temperature of, for example, 140° C., in particular from 110 to 140° C., or by sonication.
(§1) The copolymer was simulated by a mixture of 1,3-bis-(pyrrolidon-1-yl)butane and 1,4-diacetoxybutane in the ratio of 6:4 by weight.
The maximum solubility was determined by mixing 60 mg of lopinavir with 140 mg of the test solvent and treating with ultrasound at room temperature for 30 min. The solvent was then centrifuged at 10 000 rpm for 10 min. A sample of the clear supernatant was investigated by HPLC. […] The remaining amount of the sample was stored at room temperature for 4 weeks. Then a further sample of the supernatant was taken and investigated by HPLC. A concentration of 28.87% by weight was found.

Series [2] can be described thus: Thermodynamic saturation solubility in test solvent, HPLC of clear supernatant after stirring 24 hours (method b). Type of series: physicochemical. The method, then: Quantitative determination of the solubility is possible for example in the following way: • a) A concentration series is prepared by bringing various amounts of biologically active substance into contact with a constant amount of test solvent in parallel tests. After an equilibration time over a defined period at a given temperature, preferably with blending, e.g. stirring for 24 hours or ultrasound treatment for 30 min, the maximum concentration at which clear solutions are obtained is found. The solubility of the biologically active substance is between the concentration at which a clear solution is obtained but at the next concentration no clear solution is obtained. • b) An amount of the test solvent which is insufficient for completely dissolving is added to an amount of the biologically active substance, or further amounts of biologically active substance are added to the solution until the added amount no longer completely dissolves. After an equilibration time over a defined period at a given temperature, preferably with blending, e.g. stirring for 24 hours or ultrasound treatment for 30 min, a sample of the clear supernatant is taken. The mixture can for this purpose be previously centrifuged, e.g. using an ultracentrifuge at 8000 to 12 000 rpm. The concentration of the biologically active substance is determined in the sample of the clear supernatant, e.g. by high pressure liquid chromatography (HPLC). The value which is found corresponds to the solubility of the biologically active substance.
as §1
In an alternative determination method, 150 mg of lopinavir were mixed with 350 mg of the test solvent and stirred at room temperature for 24 hours. The sample was then centrifuged at 12 000 rpm for one minute. The clear supernatant was investigated by HPLC.
Example 1b) was repeated but with the test solvent containing 5% by weight Cremophor RH 40.
Example 1b) was repeated with the abovementioned active ingredient premix. 21.3% by weight lopinavir was found in the clear supernatant by HPLC.
Example 3a) was repeated, using the concentrations indicated in the table below, and with the test solvent containing 10% by weight Cremophor RH 40. […] The HPLC method led to a result of 21.7% for lopinavir.

As to `Cc1cccc(C)c1OCC(=O)N[C@@H](Cc1ccccc1)[C@@H](O)C[C@H](Cc1ccccc1)NC(=O)[C@H](C(C)C)N1CCCNC1=O` [Lopinavir], in series [1] (60 mg lopinavir + 140 mg test solvent, ultrasound at room temperature 30 min, HPLC of supernatant), the maximum solubility turned out to be 39.72 % by weight. Besides, in series [1] (after ultrasound treatment, sample stored at room temperature for 4 weeks, HPLC), the “concentration in supernatant after storage” value was determined as 28.87 % by weight. Also, the solubility in series [2] (150 mg lopinavir + 350 mg test solvent 6:4, stirred at room temperature 24 hours, HPLC of clear supernatant) was 24.9 % by weight; in series [2] (HPLC of supernatant, test solvent containing 5% by weight Cremophor RH 40), 22.8%. Moreover, the “influence of Cremophor RH 40 on thermodynamic saturation solubility” value in series [2] (5% by weight Cremophor RH 40 in test solvent versus none) was “reduces the thermodynamic saturation solubility”. In series [2] (HPLC, lopinavir/ritonavir premix 4:1 by weight, test solvent 6:4), the “lopinavir found in the clear supernatant” value stood at 21.3 % by weight. Further, in series [2] (lopinavir/ritonavir premix 4:1, test solvent containing 10% by weight Cremophor RH 40), the “thermodynamic saturation solubility, HPLC method” value is on record as 21.7%. Also, the “influence of ritonavir on thermodynamic saturation solubility” value in series [2] (presence of ritonavir (premix 4:1) versus lopinavir alone) is on record as “reduces the thermodynamic saturation solubility”.
